# Test results published in patent US6534278B1, “Screening for antibiotics” (priority 1997, dated 2003).
# Where a SMILES comes first, the peptide text is derived from it. Bridges are numbered along the chain shown (N, C = ends). [ ]: non-standard residue; d: D form. The star is where a group is joined. Ileψ(thiazoline)Cys = CC[C@H](C)[C@H](N)C1=N[C@H](C(=O)*)CS1; dOrn = NCCC[C@@H](N)C(=O)O; Dab = NCC[C@H](N)C(=O)O
# Columns and labels:
# [1] = system: envA-cells containing the pNU305 plasmid; assay: microbe, parasite or virus in culture
# Method: The optical density (OD) of each reaction mixture was measured at 655 nm. The lowest concentration of ramoplanin for which the OD reading was zero was taken to be the MIC.
# [2] = system: E. coli strain D22 carrying plasmid pNU305 (ampC and ampR genes from Citrobacter freundii, envA-); assay: β-lactamase induction screen (nitrocefin, OD 490 nm); assay type: cell-based; settings: for [Induction] (limit of detection of β-lactamase induction): lowest concentration at which β-lactamase induction begins to increase, average over trials
# Method: Screening Strain: E. coli strain D22 carrying plasmid pNU305 which contains the ampC and ampR genes from Citrobacter freundii, the envA-allele, a colEI origin of replication, and a tetracycline resistance determinant was grown in Luria Broth (LB; 5 g yeast extract, 10 g tryptone, and 10 g sodium chloride per liter of purified water) supplemented with E salts (400 μl E salts per 100 ml LB; the E salts contained-10 g magnesium sulfate heptahydrate, 100 g citric acidmonohydrate, 500 g anhydrous dibasic potassium phosphate, and 175 g of monosodium monoammonium phosphate tetrahydrate per liter of purified water).
# Reaction Buffer: Nitrocefin was dissolved in dimethylsulfoxide (DMSO) to a concentration of 25 mg/ml and stored in 1 ml aliquots at −80° C. To prepare a reaction buffer, one of the nitrocefin/DMSO aliquots was added to 50 ml Z buffer with detergents (16.1 g dibasic sodium phosphate heptahydrate, 5.5 g monobasic sodium phosphate monohydrate, 0.75 g potassium chloride, 246 mg magnesium sulfate heptahydrate, 200 mg CTAB, and 100 mg sodium deoxycholate per liter, with the pH adjusted to 7.0) and the mixture was vortexed vigorously. The resulting suspension was filtered through Q5 filter paper (Fisher, Cat. No. 09-790-2e) to remove insoluble material. The filtered reaction buffer was stored at −80° C. until it was needed.
# Growth Regimen: A single colony of the E. coli (i.e., a starter colony) was streaked onto an LB plate (with tetracycline) and incubated overnight at 37° C. Cells from the starter colony were then used to inoculate multiple colonies in LB (without tetracycline) to give a cell density no higher than 0.05 OD at 650 nm. The cells were grown at 37° C. under aerating conditions (i.e., shaken at 200 rpm in Erlenmeyer flasks having a volume of at least 10 times that of the culture.
# Screening: When the cells had grown to a cell density of 0.25 to 0.8 OD at 650 nm, the culture was diluted to 0.25 OD. 80 μl of the diluted culture was added to each well of a microtiter plate containing 20 μl samples from a simulated natural product library, using an automated liquid dispensing robot from Titrtek (Huntsville, Ala.).
# A positive control compound (25 μg/ml fosfomycin) was added to some of the wells and other wells were left untreated, as negative control samples. The samples were incubated on the plate for one hour at 37° C. without shaking.
# Assay: 10 μl aliquots were transferred from each well to a second microtiter plate, using a Quadra 96 Model 320 robot (TomTec, Hamden, Conn.). 90 μl of the reaction buffer prepared above was added to each well using a automated liquiddispensing robot (Titrtek, Huntsville, Ala.). The OD of the samples was immediately read at […] in a plate reader (Biorad, Model 3550) to obtain zero point β-lactamase levels. The OD was measured again after incubating the plates at room temperature for 90 minutes (room temperature near 30° C.) or 120 minutes (room temperature below 30° C.).
# Data Analysis: An induction value, I, was determined for each sample according to the following formula: I=(OD of sample—median OD)/(OD of induced cells—median OD); where the median OD was determined for each plate and the OD of induced cells was defined as the average of the readings from the control wells exposed to the 25 μg/ml fosfomycin. […] Any sample having I≧0.2 was considered to be positive. Since the assay is calorimetric, the zero-point levels were subtracted from the OD readings.
# The same mixtures were also screened for increased β-lactamase using the new methods. The β-lactamase produced was plotted against the logarithm of ramoplanin concentration. FIGS. 3A and 3B show two examples of such. plots. As shown by the leftmost 6 and 7 solid black circles in FIGS. 3A and 3B, respectively, these plots show no effect of low concentrations of added ramoplanin on β-lactamase induction, up to a ramoplanin concentration of about 0.8 to 1.6 μg/ml. At this level, the β-lactamase induction level began to increase. […]
# [3] = lowest concentration with OD 655 nm of zero, 5×10^5 cells/ml, 18 hours, 37° C.
Compound,"MIC ([1]; Escherichia coli, 18 h)",[Induction] (limit of detection of β-lactamase induction) [2],"MIC [1, 3]","MIC ([1]; lowest concentration with OD 655 nm of zero, 5×10^5 cells/ml, 18 hours, 37° C., listed as ramoplanin)",detection concentration times less than the minimum inhibitory concentration (MIC / limit of detection) ([2]; 20/1.8),[Induction] (limit of detection of β-lactamase induction) ([2]; listed as ramoplanin)
C[C@@H]1O[C@@H]1P(=O)(O)O [Fosfomycin],0.7 µg/mL,0.7 µg/mL,,,,
Triton X-100,,100 µg/mL,500 µg/mL,,,
CC[C@H]1OC(=O)[C@H](C)[C@@H](O[C@H]2C[C@@](C)(OC)[C@@H](O)[C@H](C)O2)[C@H](C)[C@@H](O[C@@H]2O[C@H](C)C[C@H](N(C)C)[C@H]2O)[C@](C)(O)C[C@@H](C)C(=O)[C@H](C)[C@@H](O)[C@]1(C)O [Erythromycin],0.8 µg/mL,none,,,,
N[C@@H]1CON=C1O [Cycloserine],12.5 µg/mL,20 µg/mL,,,,
CN[C@H](CC(C)C)C(=O)N[C@H]1C(=O)N[C@@H](CC(N)=O)C(=O)N[C@H]2C(=O)N[C@H]3C(=O)N[C@H](C(=O)N[C@H](C(=O)O)c4cc(O)cc(O)c4-c4cc3ccc4O)[C@H](O)c3ccc(c(Cl)c3)Oc3cc2cc(c3O[C@@H]2O[C@H](CO)[C@@H](O)[C@H](O)[C@H]2O[C@H]2C[C@](C)(N)[C@H](O)[C@H](C)O2)Oc2ccc(cc2Cl)[C@H]1O [Vancomycin],10 µg/mL,4 µg/mL,,,,
Ramoplanin,,1.8 µg/mL,20 µg/mL,about 20 μg/ml,about 11 times,about 1.8 μg/ml
CC[C@@]1([C@@H]2O[C@@H]([C@H]3O[C@@](O)(CO)[C@H](C)C[C@@H]3C)C[C@@H]2C)CC[C@H]([C@]2(C)CC[C@]3(C[C@H](O)[C@@H](C)[C@@H]([C@@H](C)[C@@H](OC)[C@H](C)C(=O)O)O3)O2)O1 [Monensin],> 100 µg/mL,none,,,,
CO[C@H]1/C=C/O[C@@]2(C)Oc3c(C)c(O)c4c(O)c(c(/C=N/N5CCN(C)CC5)c(O)c4c3C2=O)NC(=O)/C(C)=C\C=C\[C@H](C)[C@H](O)[C@@H](C)[C@@H](O)[C@@H](C)[C@H](OC(C)=O)[C@@H]1C [Rifampicin],0.06 µg/mL,,,,,
Polymyxin B sulfate,,0.2 µg/mL,0.4 µg/mL,,,
CCCCCCCCCCCCOS(=O)(=O)[O-].[Na+] [Sodium dodecyl sulfate],2 µg/mL,4 µg/mL,,,,
CC[C@H](C)[C@H](N)C1=N[C@H](C(=O)N[C@@H](CC(C)C)C(=O)N[C@H](CCC(=O)O)C(=O)N[C@H](C(=O)N[C@H]2CCCCNC(=O)[C@H](CC(N)=O)NC(=O)[C@@H](CC(=O)O)NC(=O)[C@H](Cc3cnc[nH]3)NC(=O)[C@@H](Cc3ccccc3)NC(=O)[C@H]([C@@H](C)CC)NC(=O)[C@@H](CCCN)NC2=O)[C@@H](C)CC)CS1 [Bacitracin] ({Ileψ(thiazoline)Cys}-L[dE]IK[dOrn]I[dF]H[dD]N; lactam 4-C),,1.6 µg/mL,12.5 µg/mL,,,
CC(C)C[C@@H]1NC(=O)[C@@H](Cc2ccccc2)NC(=O)[C@H](CCN)NC(=O)[C@@H](NC(=O)[C@H](CCN)NC(=O)[C@@H](N)[C@@H](C)O)CCNC(=O)[C@H]([C@@H](C)O)NC(=O)[C@H](CCN)NC(=O)[C@H](CCN)NC1=O [Polymyxin B nonapeptide] (H-T[Dab][Dab][Dab][dF]L[Dab][Dab]T; lactam 3-C; N-terminus assumed),,6.3 µg/mL,>100 µg/mL,,,
CO[C@@]1(NC(=O)Cc2cccs2)C(=O)N2C(C(=O)O)=C(COC(N)=O)CS[C@@H]21 [Cefoxitin],7 µg/mL,2.5 µg/mL,,,,
Moenomycin,,1 µg/mL,2 µg/mL,,,
O=C(O)c1cn(C2CC2)c2cc(N3CCNCC3)c(F)cc2c1=O [Ciprofloxacin],0.01 µg/mL,none,,,,
